# In patent publication US12421229B2, “Hydropyrido[1,2-α]pyrazine compounds for the treatment of autoimmune disease” (Hoffmann-La Roche Inc., priority 2019, dated 2025):
# Biological target: T1, human TLR8 (Homo sapiens, UniProt Q9NR97)
# T1 construct: host or cells: HEK293 (HEK-Blue hTLR8)
# T1 sequence (Q9NR97 27-1041): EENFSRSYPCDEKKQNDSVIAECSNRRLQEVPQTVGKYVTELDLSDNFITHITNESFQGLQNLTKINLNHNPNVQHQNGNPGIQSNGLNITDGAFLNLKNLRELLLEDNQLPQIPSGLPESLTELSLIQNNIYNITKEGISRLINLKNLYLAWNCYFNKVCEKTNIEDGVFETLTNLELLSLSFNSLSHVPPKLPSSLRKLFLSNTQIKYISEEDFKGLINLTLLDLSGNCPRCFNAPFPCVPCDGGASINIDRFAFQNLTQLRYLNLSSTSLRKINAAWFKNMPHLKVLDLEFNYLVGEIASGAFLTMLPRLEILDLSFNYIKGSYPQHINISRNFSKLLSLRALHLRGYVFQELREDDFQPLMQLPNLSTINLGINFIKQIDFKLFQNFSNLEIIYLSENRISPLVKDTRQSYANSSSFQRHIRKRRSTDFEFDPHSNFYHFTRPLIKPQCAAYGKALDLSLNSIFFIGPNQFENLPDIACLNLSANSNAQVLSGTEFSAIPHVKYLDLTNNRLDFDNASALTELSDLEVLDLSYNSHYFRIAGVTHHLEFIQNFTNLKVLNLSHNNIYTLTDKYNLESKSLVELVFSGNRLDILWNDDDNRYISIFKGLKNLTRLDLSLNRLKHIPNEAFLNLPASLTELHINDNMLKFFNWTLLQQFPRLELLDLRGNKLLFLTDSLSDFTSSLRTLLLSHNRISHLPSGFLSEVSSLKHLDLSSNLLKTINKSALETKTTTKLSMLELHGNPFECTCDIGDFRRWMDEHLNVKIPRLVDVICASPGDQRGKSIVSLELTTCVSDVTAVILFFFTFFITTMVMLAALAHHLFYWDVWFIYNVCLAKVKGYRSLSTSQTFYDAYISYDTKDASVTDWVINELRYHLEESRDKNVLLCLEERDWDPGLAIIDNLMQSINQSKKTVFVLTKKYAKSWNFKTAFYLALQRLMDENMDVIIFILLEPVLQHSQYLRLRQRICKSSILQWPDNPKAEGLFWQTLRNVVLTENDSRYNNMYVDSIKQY
# Test: HEK293-Blue-hTLR-8 cells assay
# Assay type: cell-based
# Settings: HEK293-Blue-hTLR8 cells, R848 stimulation, 20 hrs, SEAP reporter; read-out: HEK/hTLR8 IC50
# From the text: A stable HEK293-Blue-hTLR-8 cell line was purchased from InvivoGen (Cat. #: hkb-htlr8, San Diego, California, USA). These cells were originally designed for studying the stimulation of human TLR8 by monitoring the activation of NF-κB. A SEAP (secreted embryonic alkaline phosphatase) reporter gene was placed under the control of the IFN-β minimal promoter fused to five NF-κB and AP-1-binding sites. The SEAP was induced by activating NF-κB and AP-1 via stimulating HEK-Blue hTLR8 cells with TLR8 ligands. Therefore the reporter expression was declined by TLR8 antagonist under the stimulation of a ligand, such as R848, for incubation of 20 hrs. The cell culture supernatant SEAP reporter activity was determined using QUANTI-Blue™ kit (Cat. #: rep-qb1, Invivogen, San Diego, Ca, USA) at a wavelength of 640 nm, a detection medium that turns purple or blue in the presence of alkaline phosphatase.
# HEK293-Blue-hTLR8 cells were incubated at a density of 250,000˜450,000 cells/mL in a volume of 170 μL in a 96-well plate in Dulbecco's Modified Eagle's medium (DMEM) containing 4.5 g/L glucose, 50 U/mL penicillin, […], […], 2 mM L-glutamine, 10% (v/v) heat-inactivated fetal bovine serum with addition of 20 μL test compound in a serial dilution in the presence of final DMSO at 1% and 10 μL of 60 uM R848 in above DMEM, perform incubation under 37° C. in a CO2 incubator for 20 hrs. Then 20 μL of the supernatant from each well was incubated with 180 μL Quanti-blue substrate solution at 37° C. for 2 hrs and the absorbance was read at 620˜655 nm using a spectrophotometer. The signaling pathway that TLR8 activation leads to downstream NF-κB activation has been widely accepted, and therefore similar reporter assay was modified for evaluating TLR8 antagonist.
row,IC50 [nM],Structure (SMILES)
1,5,"C[C@@H]1CN(c2ccc(C#N)c3ncccc23)C[C@@H]2C[C@@H](Oc3cncc(N4CCNCC4)c3)CCN21 [Example 29, 5-[(4R,8S,9aS)-4-methyl-8-[(5-piperazin-1-yl-3-pyridyl)oxy]-1,3,4,6,7,8,9,9a-octahydropyrido[1,2-a]pyrazin-2-yl]quinoline-8-carbonitrile]"
2,15,"C[C@@H]1CN(c2ccc(C#N)c3ncccc23)C[C@@H]2C[C@@H](Oc3ccc(N4CCNCC4)cn3)CCN21 [Example 11, 5-[(4R,8S,9aS)-4-methyl-8-[(5-piperazin-1-yl-2-pyridyl)oxy]-1,3,4,6,7,8,9,9a-octahydropyrido[1,2-a]pyrazin-2-yl]quinoline-8-carbonitrile]"
3,19,"C[C@@H]1CN(c2ccc(C#N)c3ncccc23)C[C@@H]2C[C@H](c3ccc(N4CCNCC4)nc3)CCN21 (stereo in doubt) [Example 2, 5-[(4R,8R)-4-methyl-8-(6-piperazin-1-yl-3-pyridyl)-1,3,4,6,7,8,9,9a-octahydropyrido[1,2-a]pyrazin-2-yl]quinoline-8-carbonitrile]"
4,14,"C[C@@H]1CN(c2ccc(C#N)c3ncccc23)C[C@@H]2C[C@@H](c3ccc(C4CNCCO4)cc3)CCN21 (stereo partly drawn) [Example 24, 5-[(4R,8S,9aS)-4-methyl-8-(4-morpholin-2-ylphenyl)-1,3,4,6,7,8,9,9a-octahydropyrido[1,2-a]pyrazin-2-yl]quinoline-8-carbonitrile]"
5,29,"CO[C@H]1CN(c2ccc(C3CN([C@@H]4CCN5[C@@H](C4)CN(c4ccc(C#N)c6ncccc46)C[C@H]5C)C3)cc2)C[C@H]1N [Example 32, 5-[(4R,8R,9aS)-8-[3-[4-[(3R,4S)-3-amino-4-methoxy-pyrrolidin-1-yl]phenyl]azetidin-1-yl]-4-methyl-1,3,4,6,7,8,9,9a-octahydropyrido[1,2-a]pyrazin-2-yl]quinoline-8-carbonitrile]"
6,47,"CO[C@H]1CN(c2ccc([C@@H]3CCN4[C@@H](C3)CN(c3ccc(C#N)c5ncccc35)C[C@H]4C)cn2)C[C@@H]1N [Example 6, 5-[(4R,8R,9aS)-8-[6-[(3S,4S)-3-amino-4-methoxy-pyrrolidin-1-yl]-3-pyridyl]-4-methyl-1,3,4,6,7,8,9,9a-octahydropyrido[1,2-a]pyrazin-2-yl]quinoline-8-carbonitrile]"
7,63,"C[C@@H]1CN(c2ccc(C#N)c3ncccc23)C[C@@H]2C[C@H](c3ccc(N4C[C@@H](N)[C@@H](F)C4)nc3)CCN21 [Example 19, 5-[(4R,8R,9aS)-8-[6-[(3R,4S)-3-amino-4-fluoro-pyrrolidin-1-yl]-3-pyridyl]-4-methyl-1,3,4,6,7,8,9,9a-octahydropyrido[1,2-a]pyrazin-2-yl]quinoline-8-carbonitrile]"
8,36,"C[C@@H]1CN(c2ccc(C#N)c3ncccc23)C[C@@H]2C[C@H](N3CC(c4ccc(N5CCNCC5)cc4)C3)CCN21 [Example 9, 5-[(4R,8R,9aS)-4-methyl-8-[3-(4-piperazin-1-ylphenyl)azetidin-1-yl]-1,3,4,6,7,8,9,9a-octahydropyrido[1,2-a]pyrazin-2-yl]quinoline-8-carbonitrile]"
9,30,"C[C@@H]1CN(c2ccc(C#N)c3ncccc23)C[C@@H]2CC(c3ccc(C[C@@H]4CNCCO4)cc3)CCN21 (stereo in doubt) [Example 25, 5-[(4R,8R,9aS)-4-methyl-8-[4-[[(2R)-morpholin-2-yl]methyl]phenyl]-1,3,4,6,7,8,9,9a-octahydropyrido[1,2-a]pyrazin-2-yl]quinoline-8-carbonitrile]"
10,49,"[2H]c1ccc2c(N3C[C@@H]4C[C@H](Nc5ccc(C[C@@H]6CNCCO6)cc5)CCN4[C@H](C)C3)ccc(C#N)c2n1 [Example 22, 5-[(4R,8R,9aS)-4-methyl-8-[4-[[(2R)-morpholin-2-yl]methyl]anilino]-1,3,4,6,7,8,9,9a-octahydropyrido[1,2-a]pyrazin-2-yl]-2-deuterio-quinoline-8-carbonitrile]"
11,18,"C[C@@H]1CN(c2ccc(C#N)c3ncccc23)C[C@@H]2C[C@H](c3ccc(N4CCNCC4)nc3)CCN21 [Example 4, 5-[(4R,8R,9aS)-4-methyl-8-(6-piperazin-1-yl-3-pyridyl)-1,3,4,6,7,8,9,9a-octahydropyrido[1,2-a]pyrazin-2-yl]quinoline-8-carbonitrile]"
12,54,"C[C@@H]1CN(c2ccc(C#N)c3ncccc23)C[C@@H]2C[C@@H](NCc3ccc(N4CCNCC4)cc3)CCN21 [Example 17, 5-[(4R,8S,9aS)-4-methyl-8-[(4-piperazin-1-ylphenyl)methylamino]-1,3,4,6,7,8,9,9a-octahydropyrido[1,2-a]pyrazin-2-yl]quinoline-8-carbonitrile]"
